US12384797B2, “Thioeno[3,2-b] pyridin-7-amine compounds for treating familial dysautonomia” (PTC THERAPEUTICS, INC., priority 2019, dated 2025)

test system: Elongator complex protein 1 (ELP1, also referred to as IKBKAP); test: IKBKAP-HTRF assay (IKBKAP protein in lysates of FD patient-derived fibroblasts); assay type: cell-based, human; conditions: 48 hours incubation, 7-point concentration curve
Procedure, shortened: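 FD patient-derived fibroblasts (10,000/well) were treated 48 h at 37 °C with a 7-point, 3.16-fold compound series in triplicate, then lysed. IKBKAP was read by sandwich HTRF (donor/acceptor anti-IKAP antibodies, overnight at 4 °C, 665/620 nm). MFI is ΔF over vehicle ΔF; EC2x is the concentration giving twice the vehicle IKBKAP level.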

Compound	EC2x for IKBKAP protein expression (concentration producing two times the amount of IKBKAP protein vs DMSO vehicle control)	MFI (maximum fold increase in IKBKAP protein abundance relative to the vehicle control)
N#Cc1cc(NCc2cccs2)c2scc(C#N)c2n1 [Compound 12, 7-{[(thiophen-2-yl)methyl]amino}thieno[3,2-b]pyridine-3,5-dicarbonitrile]	*** (between >0.02 μM and ≤0.5 μM is indicated by three stars (***))	** (between >1.9 and ≤2.9 is indicated by two stars (**))
N#CC[C@H](N)Cc1sc2c(NCc3ccco3)cc(Cl)nc2c1Br [Compound 103, (3S)-3-amino-4-(3-bromo-5-chloro-7-{[(furan-2-yl)methyl]amino}thieno[3,2-b]pyridin-2-yl)butanenitrile]	**** (between >0.005 μM and ≤0.02 μM is indicated by four stars (****))	**** (between >3.9 and ≤4.9 is indicated by four stars (****))
CC[C@H](N)Cc1sc2c(NCc3cccs3)cc(Cl)nc2c1Cl [Compound 83, 2-[(2S)-2-aminobutyl]-3,5-dichloro-N-[(thiophen-2-yl)methyl]thieno[3,2-b]pyridin-7-amine]	***** (≤0.005 μM is indicated by five stars (*****))	***** (>4.9 is indicated by five stars (*****))
OCc1cc2nc(Cl)cc(NCc3ccco3)c2s1 [Compound 5, (5-chloro-7-{[(furan-2-yl)methyl]amino}thieno[3,2-b]pyridin-2-yl)methanol]	* (An EC2x>1 μM is indicated by one star (*))	* (An MFI≤1.9 is indicated by one star (*))
COC[C@H](N)Cc1sc2c(NCc3ccco3)cc(Cl)nc2c1Br [Compound 44, 2-[(2R)-2-amino-3-methoxypropyl]-3-bromo-5-chloro-N-[(furan-2-yl)methyl]thieno[3,2-b]pyridin-7-amine]	***** (≤0.005 μM is indicated by five stars (*****))	***** (>4.9 is indicated by five stars (*****))
Clc1cc(NCc2nccs2)c2scc(Cl)c2n1 [Compound 8, 3,5-dichloro-N-[(1,3-thiazol-2-yl)methyl]thieno[3,2-b]pyridin-7-amine]	*** (between >0.02 μM and ≤0.5 μM is indicated by three stars (***))	***** (>4.9 is indicated by five stars (*****))
COc1cccc(NC(=O)[C@H](N)Cc2sc3c(NCc4ccco4)cc(Cl)nc3c2C)c1 [Compound 144, 3-(5-chloro-7-{[(furan-2-yl)methyl]amino}-3-methylthieno[3,2-b]pyridin-2-yl)-N-(3-methoxyphenyl)-D-alaninamide]	**** (between >0.005 μM and ≤0.02 μM is indicated by four stars (****))	***** (>4.9 is indicated by five stars (*****))
C[C@@H](O)[C@H](N)Cc1sc2c(NCc3ccco3)cc(Cl)nc2c1Br [Compound 165, (2R,3R)-3-amino-4-(3-bromo-5-chloro-7-{[(furan-2-yl)methyl]amino}thieno[3,2-b]pyridin-2-yl)butan-2-ol]	***** (≤0.005 μM is indicated by five stars (*****))	***** (>4.9 is indicated by five stars (*****))
N[C@@H](CO)Cc1sc2c(NCc3ccco3)cc(Cl)nc2c1Br [Compound 41, (2R)-2-amino-3-(3-bromo-5-chloro-7-{[(furan-2-yl)methyl]amino}thieno[3,2-b]pyridin-2-yl)propan-1-ol]	***** (≤0.005 μM is indicated by five stars (*****))	***** (>4.9 is indicated by five stars (*****))
C[C@H](F)[C@H](N)Cc1sc2c(NCc3nccs3)cc(Cl)nc2c1Br [Compound 125, 2-[(2R,3S)-2-amino-3-fluorobutyl]-3-bromo-5-chloro-N-[(1,3-thiazol-2-yl)methyl]thieno[3,2-b]pyridin-7-amine]	***** (≤0.005 μM is indicated by five stars (*****))	***** (>4.9 is indicated by five stars (*****))
N[C@@H](CCO)Cc1sc2c(NCc3nccs3)cc(Cl)nc2c1Br [Compound 89, (3S)-3-amino-4-(3-bromo-5-chloro-7-{[(1,3-thiazol-2-yl)methyl]amino}thieno[3,2-b]pyridin-2-yl)butan-1-ol]	***** (≤0.005 μM is indicated by five stars (*****))	***** (>4.9 is indicated by five stars (*****))
N#Cc1cc(NCc2cccs2)c2scc(Br)c2n1 [Compound 11, 3-bromo-7-{[(thiophen-2-yl)methyl]amino}thieno[3,2-b]pyridine-5-carbonitrile]	*** (between >0.02 μM and ≤0.5 μM is indicated by three stars (***))	** (between >1.9 and ≤2.9 is indicated by two stars (**))
C#C[C@H](N)Cc1sc2c(NCc3ccco3)cc(Cl)nc2c1Cl [Compound 166, 2-[(2R)-2-aminobut-3-yn-1-yl]-3,5-dichloro-N-[(furan-2-yl)methyl]thieno[3,2-b]pyridin-7-amine]	***** (≤0.005 μM is indicated by five stars (*****))	**** (between >3.9 and ≤4.9 is indicated by four stars (****))
2-[(2S)-2-aminobutyl]-5-chloro-3-cyclopropyl-N-[(1,3-thiazol-2-yl)methyl]thieno[3,2-b]pyridin-7-amine [Compound 86]	*** (between >0.02 μM and ≤0.5 μM is indicated by three stars (***))	**** (between >3.9 and ≤4.9 is indicated by four stars (****))
N[C@@H](CCF)Cc1sc2c(NCc3cccs3)cc(Cl)nc2c1Cl [Compound 98, 2-[(2S)-2-amino-4-fluorobutyl]-3,5-dichloro-N-[(thiophen-2-yl)methyl]thieno[3,2-b]pyridin-7-amine]	***** (≤0.005 μM is indicated by five stars (*****))	***** (>4.9 is indicated by five stars (*****))
C=C[C@H](N)Cc1sc2c(NCc3nccs3)cc(Cl)nc2c1Br [Compound 72, 2-[(2R)-2-aminobut-3-en-1-yl]-3-bromo-5-chloro-N-[(1,3-thiazol-2-yl)methyl]thieno[3,2-b]pyridin-7-amine]	***** (≤0.005 μM is indicated by five stars (*****))	***** (>4.9 is indicated by five stars (*****))
COC[C@H](N)Cc1sc2c(NCc3ccco3)cc(Cl)nc2c1C [Compound 45, 2-[(2R)-2-amino-3-methoxypropyl]-5-chloro-N-[(furan-2-yl)methyl]-3-methylthieno[3,2-b]pyridin-7-amine]	***** (≤0.005 μM is indicated by five stars (*****))	***** (>4.9 is indicated by five stars (*****))
Cc1c([C@H](C)N)sc2c(NCc3cccs3)cc(Cl)nc12 [Compound 55, 2-[(1S)-1-aminoethyl]-5-chloro-3-methyl-N-[(thiophen-2-yl)methyl]thieno[3,2-b]pyridin-7-amine]	**** (between >0.005 μM and ≤0.02 μM is indicated by four stars (****))	**** (between >3.9 and ≤4.9 is indicated by four stars (****))
N[C@H](Cc1sc2c(NCc3ccco3)cc(Cl)nc2c1Cl)C(=O)Nc1ccccc1F [Compound 124, 3-(3,5-dichloro-7-{[(furan-2-yl)methyl]amino}thieno[3,2-b]pyridin-2-yl)-N-(2-fluorophenyl)-D-alaninamide]	**** (between >0.005 μM and ≤0.02 μM is indicated by four stars (****))	***** (>4.9 is indicated by five stars (*****))
C[C@H](N)Cc1sc2c(NCc3ccco3)cc(C#N)nc2c1C#N [Compound 50, 2-[(2S)-2-aminopropyl]-7-{[(furan-2-yl)methyl]amino}thieno[3,2-b]pyridine-3,5-dicarbonitrile]	**** (between >0.005 μM and ≤0.02 μM is indicated by four stars (****))	**** (between >3.9 and ≤4.9 is indicated by four stars (****))
2-[(2R)-2-amino-3-fluoropropyl]-5-chloro-3-cyclopropyl-N-[(thiophen-2-yl)methyl]thieno[3,2-b]pyridin-7-amine [Compound 77]	*** (between >0.02 μM and ≤0.5 μM is indicated by three stars (***))	**** (between >3.9 and ≤4.9 is indicated by four stars (****))
Oc1csc2c(NCc3cccs3)cc(Cl)nc12 [Compound 138, 5-chloro-7-{[(thiophen-2-yl)methyl]amino}thieno[3,2-b]pyridin-3-ol]	*** (between >0.02 μM and ≤0.5 μM is indicated by three stars (***))	** (between >1.9 and ≤2.9 is indicated by two stars (**))
